Results published in patent US11878970B2, “Allosteric chromenone inhibitors of phosphoinositide 3-kinase (PI3K) for the treatment of disease” (Petra Pharma Corporation, priority 2021, dated 2024).

Tests used:
[1] = target: PI3K-α (PIK3CA) in MDA-MB-453 cells (Homo sapiens, UniProt P42336); assay: PI3K-alpha kinase (PIK3CA) in vitro cell based assay, MDA-MB-453 cells, SureFire Ultra AlphaLisa; conditions: read-out: PI3K-α (PIK3CA) in vitro cell based assay IC50
Description: PI3K-Alpha Kinase (PIK3CA) Activity In Vitro Cell Based Assay and Determining IC50 Values for Inhibitors
The MDA-MB-453 (ATCC-HTB-131) cell line was obtained from the American Type Culture Collection (Manassas, VA). Cells were maintained in Dulbecco's Modified Eagle Media (DMEM, Gibco 11965-092) supplemented with 10% Fetal Bovine Serum, heat inactivated (FBS HI, Gibco 10082-147), 1× non-essential amino acids (NEAA, Gibco 11140-050), and 1 mM sodium pyruvate (Gibco 11360-070). Cultures were maintained in a humidified incubator at 37° C. under 5% CO2/95% air.
For compound testing in 0% FBS, MDA-MB-453 cells were seeded at a density of 1.5×10^4 cells per well in white 384-well plates in 20 μl of Minimum Essential Media (MEM) assay media with 1×NEAA, 1 mM sodium pyruvate, and 1 μg/mL human insulin (Sigma I9278). Compounds dissolved in 10 mM stock solutions in DMSO were serially diluted 1:3 in DMSO to generate a 10-point dilution series and plated using an acoustic liquid handler system (Echo 550 Series Liquid Handler, Labcyte). A 5× intermediate compound dilution plate in MEM with 1×NEAA and 1 mM sodium pyruvate (150 μM starting compound concentration in 1.5% DMSO) was then prepared. Five μl of the intermediate serially diluted compounds were added to the cell plate to final concentrations ranging from […] in 0.3% DMSO. 0.3% DMSO alone was used to establish the maximum (MAX) signal and GDC-0032 at a final concentration of 1 μM was used as a reference compound for the minimum (MIN) signal. After 3 hours treatment, the medium was removed, and the cells lysed in 10 μL of 1× SureFire Lysis buffer with shaking for 10 minutes at room temperature. The Acceptor Mix (Reaction Buffer 1+Reaction Buffer 2+Activation Buffer+SureFire Ultra Acceptor Beads) was prepared by diluting Activation buffer 25-fold in combined Reaction Buffer 1 and Reaction Buffer 2. The Acceptor beads were diluted 50-fold in the combined Reaction Buffers. Five μL of Acceptor Mix was added to each well, the plate was sealed and covered with foil and incubated for 1 hour at room temperature. The Donor Mix (dilution buffer+SureFire Ultra Donor Beads) was prepared by diluting Donor Beads 50-fold in dilution buffer. Five μL of the Donor Mix was added to each well and the plate sealed and covered with foil and incubated for 1 hour at room temperature in the dark. The plates were read on a Neo2 plate reader instrument from Biotek using standard AlphaLisa settings. Compounds were tested in duplicate and the average % inhibition at each compound concentration was used to generate a single dose response curve. The data were processed using the Genedata-Screener tool. Relative IC50 values were determined using luminescence units by calculating percent inhibition with respect to the in-plate “MIN” (GDC-0032 reference control) and “MAX” (DMSO) controls. The data was analyzed using a 4-parameter nonlinear logistic equation (four-parameter logistic concentration-response curve): Y=bottom+[(top−bottom)/1+(X/IC50)slope] where Y=% inhibition, X=concentration of inhibitor, bottom=minimum value of y attained by curve-fit, top=maximum value of y attained by curve-fit and slope=steepness of curve at the IC50. % Inhibition=[(signal at X−median Min)/(median Max−median Min)]×100 IC50: concentration of compound that reduces a given response (ligand binding, enzyme response) by 50%. Relative IC50: concentration giving half the compound's maximum response.

[2] = target: T1, PI3K-α (PIK3CA) H1047R mutant, p110α/p85α complex (Homo sapiens, UniProt P42336, H1047R); assay: PI3K-alpha kinase (PIK3CA) biochemical activity, ADP-Glo, H1047R mutant
T1 construct: Recombinant, catalytically active human full length PIK3KA Wild-type and H1047R mutant; 6×His (N); purchased EMD Millipore Sigma 14-792M
T1 sequence (P42336 whole entry H1047R): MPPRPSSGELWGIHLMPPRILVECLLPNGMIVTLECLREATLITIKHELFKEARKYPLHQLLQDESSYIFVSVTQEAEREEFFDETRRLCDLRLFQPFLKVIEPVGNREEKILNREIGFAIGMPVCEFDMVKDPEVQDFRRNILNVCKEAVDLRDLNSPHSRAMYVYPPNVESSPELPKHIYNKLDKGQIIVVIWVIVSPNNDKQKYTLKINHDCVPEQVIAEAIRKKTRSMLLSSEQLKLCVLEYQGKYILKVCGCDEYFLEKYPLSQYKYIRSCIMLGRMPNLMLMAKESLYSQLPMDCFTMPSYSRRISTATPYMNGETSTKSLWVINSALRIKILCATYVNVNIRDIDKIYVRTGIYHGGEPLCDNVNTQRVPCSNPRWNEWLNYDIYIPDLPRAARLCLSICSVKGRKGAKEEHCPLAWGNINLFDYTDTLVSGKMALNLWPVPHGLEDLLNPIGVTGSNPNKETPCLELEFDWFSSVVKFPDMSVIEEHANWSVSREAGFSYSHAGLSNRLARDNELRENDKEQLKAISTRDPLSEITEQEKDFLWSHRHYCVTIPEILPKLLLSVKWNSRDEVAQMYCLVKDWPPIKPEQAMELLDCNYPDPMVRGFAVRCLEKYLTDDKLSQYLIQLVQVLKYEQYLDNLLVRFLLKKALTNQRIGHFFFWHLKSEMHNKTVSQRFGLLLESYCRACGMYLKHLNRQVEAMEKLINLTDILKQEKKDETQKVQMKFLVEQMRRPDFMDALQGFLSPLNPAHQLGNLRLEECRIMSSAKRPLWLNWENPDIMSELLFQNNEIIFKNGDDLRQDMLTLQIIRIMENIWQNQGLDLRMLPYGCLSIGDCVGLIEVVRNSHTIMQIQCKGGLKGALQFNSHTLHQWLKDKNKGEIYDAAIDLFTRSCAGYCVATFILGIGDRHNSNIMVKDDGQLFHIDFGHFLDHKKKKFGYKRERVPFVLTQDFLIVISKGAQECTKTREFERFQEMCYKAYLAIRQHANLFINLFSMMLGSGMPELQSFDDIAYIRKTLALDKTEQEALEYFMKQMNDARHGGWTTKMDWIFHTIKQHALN
T1 sequence (P27986 whole entry partner): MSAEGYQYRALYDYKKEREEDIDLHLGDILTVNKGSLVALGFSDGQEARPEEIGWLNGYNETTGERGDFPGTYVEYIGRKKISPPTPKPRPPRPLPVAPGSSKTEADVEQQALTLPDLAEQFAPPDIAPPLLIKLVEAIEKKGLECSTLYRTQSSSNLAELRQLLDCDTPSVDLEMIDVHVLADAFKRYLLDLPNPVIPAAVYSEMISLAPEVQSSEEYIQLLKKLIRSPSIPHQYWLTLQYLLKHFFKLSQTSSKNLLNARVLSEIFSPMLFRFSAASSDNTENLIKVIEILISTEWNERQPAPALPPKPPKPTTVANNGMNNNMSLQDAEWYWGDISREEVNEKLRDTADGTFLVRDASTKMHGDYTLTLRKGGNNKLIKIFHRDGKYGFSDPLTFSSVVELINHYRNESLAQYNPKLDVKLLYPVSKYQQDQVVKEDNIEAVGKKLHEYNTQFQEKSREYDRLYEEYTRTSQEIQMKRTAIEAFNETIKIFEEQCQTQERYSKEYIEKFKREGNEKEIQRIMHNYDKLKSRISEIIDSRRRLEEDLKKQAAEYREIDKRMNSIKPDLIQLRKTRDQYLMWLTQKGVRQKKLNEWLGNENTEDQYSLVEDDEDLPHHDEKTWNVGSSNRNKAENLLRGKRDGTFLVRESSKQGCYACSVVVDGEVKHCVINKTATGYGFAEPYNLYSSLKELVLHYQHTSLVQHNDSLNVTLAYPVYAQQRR
In short: (§1)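 ADP formation measured by ADP-Glo luminescence after reaction at 27 °C to about 10% ATP turnover, using 20 uM ATP, 50 uM PIP2diC8 or soy PI lipid, HEPES pH 7.4 with MgCl2. Enzyme (1-5 nM WT or H1047R p110α/p85α) and compound preincubated 1 h first; 10-point 1:3 curves fitted four-parameter for IC50.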

[3] = target: T2, PI3K-α (PIK3CA) wild-type (WT), p110α/p85α complex (Homo sapiens, UniProt P42336); assay: PI3K-alpha kinase (PIK3CA) biochemical activity, ADP-Glo, wild-type
T2 construct: Recombinant, catalytically active human full length PIK3KA Wild-type and H1047R mutant; 6×His (N); purchased EMD Millipore Sigma 14-602M
In short: as §1

[4] = PIP2diC8 lipid substrate (footnote 1)

Chain of PI3K-α (PIK3CA) in MDA-MB-453 cells (P27986 2-724): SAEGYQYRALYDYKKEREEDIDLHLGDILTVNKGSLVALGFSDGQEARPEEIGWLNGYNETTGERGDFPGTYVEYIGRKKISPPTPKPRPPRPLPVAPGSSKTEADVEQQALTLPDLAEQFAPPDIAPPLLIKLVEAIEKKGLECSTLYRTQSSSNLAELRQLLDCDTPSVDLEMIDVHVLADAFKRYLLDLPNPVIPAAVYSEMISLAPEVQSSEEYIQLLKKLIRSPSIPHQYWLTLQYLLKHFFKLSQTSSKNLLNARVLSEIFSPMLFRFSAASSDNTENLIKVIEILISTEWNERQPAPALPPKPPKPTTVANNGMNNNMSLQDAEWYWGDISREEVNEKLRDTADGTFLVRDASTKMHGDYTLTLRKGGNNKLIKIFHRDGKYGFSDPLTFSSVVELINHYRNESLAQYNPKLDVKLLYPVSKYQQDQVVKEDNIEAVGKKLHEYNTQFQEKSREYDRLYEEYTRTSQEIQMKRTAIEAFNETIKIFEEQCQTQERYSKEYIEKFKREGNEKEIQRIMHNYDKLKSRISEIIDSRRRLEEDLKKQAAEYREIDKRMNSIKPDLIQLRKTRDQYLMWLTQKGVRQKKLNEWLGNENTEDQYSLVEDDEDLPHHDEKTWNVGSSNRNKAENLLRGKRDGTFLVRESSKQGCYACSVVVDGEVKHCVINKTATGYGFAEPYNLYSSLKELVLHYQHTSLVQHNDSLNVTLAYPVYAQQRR
Chain of PI3K-α (PIK3CA) in MDA-MB-453 cells (P42336 whole entry): as the sequence (P42336 whole entry H1047R) above, with R1047H counted along it

SMILES	IC50 [1] [µM]	IC50 ([2]; Soy PI lipid substrate) [µM]	IC50 ([3]; Soy PI lipid substrate) [µM]	IC50 [2, 4] [µM]	IC50 [3, 4] [µM]
Cc1cc(C(C)Nc2ccccc2C(=O)O)c2oc(-c3cnc4nn(C)cc4c3)cc(=O)c2c1 (centres unmarked) [Example 9, 2-[1-[6-Methyl-2-(2-methylpyrazolo[3,4-b]pyridin-5-yl)-4-oxo-chromen-8-yl]ethylamino]benzoic acid]	> 0.5			< 0.5	0.5 to 1
Cc1cc(C(C)Nc2ccccc2C(=O)O)c2oc(-c3ccc4c(cnn4C)c3)cc(=O)c2c1 (single isomer, unassigned) [Example 26, 2-[1-[6-Methyl-2-(1-methylindazol-5-yl)-4-oxo-chromen-8-yl]ethylamino]benzoic acid]	< 0.05	< 0.5	< 0.5		
Cc1cc([C@@H](C)Nc2ccccc2C(=O)O)c2oc(-c3ccc4nn(Cc5ccccc5)cc4c3)c(C)c(=O)c2c1 [Example 210, 2-[[(1R)-1-[2-(2-Benzylindazol-5-yl)-3,6-dimethyl-4-oxo-chromen-8-yl]ethyl]amino]benzoic acid]	< 0.05	< 0.5	0.5 to 1		
Cc1cc(C(C)Nc2ccccc2C(=O)O)c2oc(-c3ccc4[nH]nc(C)c4c3)cc(=O)c2c1 (single isomer, unassigned) [Example 61, 2-[1-[6-Methyl-2-(3-methyl-1H-indazol-5-yl)-4-oxo-chromen-8-yl]ethylamino]benzoic acid]	0.05 to 0.1	< 0.5	0.5 to 1		
Cc1cc([C@@H](C)Nc2ccccc2C(=O)O)c2oc(-c3cc(C(F)(F)F)c4nn(C)cc4c3)cc(=O)c2c1 [Example 198, 2-[[(1R)-1-[6-Methyl-2-[2-methyl-7-(trifluoromethyl)indazol-5-yl]-4-oxo-chromen-8-yl]ethyl]amino]benzoic acid]	0.05 to 0.1	< 0.5	< 0.5		
Cc1cc(C(C)Nc2ccccc2C(=O)O)c2oc(-c3ccc4nc(C)cn4c3)cc(=O)c2c1 (single isomer, unassigned) [Example 37, 2-[1-[6-Methyl-2-(2-methylimidazo[1,2-a]pyridin-6-yl)-4-oxo-chromen-8-yl]ethylamino]benzoic acid]	> 0.5	> 10	1 to 5		
Cc1cc(C(C)Nc2ccccc2C(=O)O)c2oc(-c3ccc4cn[nH]c4c3)c(C)c(=O)c2c1 (single isomer, unassigned) [Example 120, 2-[1-[2-(1H-Indazol-6-yl)-3,6-dimethyl-4-oxo-chromen-8-yl]ethylamino]benzoic acid]	< 0.05	< 0.5	0.5 to 1		
Cc1cc(C(C)Nc2ccccc2C(=O)O)c2oc(-c3cccc4oc(C)nc34)cc(=O)c2c1 (single isomer, unassigned) [Example 117, 2-[1-[6-Methyl-2-(2-methyl-1,3-benzoxazol-4-yl)-4-oxo-chromen-8-yl]ethylamino]benzoic acid]	> 0.5	0.5 to 1	1 to 5		
Cc1cc(C(C)Nc2ccccc2C(=O)O)c2oc(-n3ncc4ccccc43)cc(=O)c2c1 (single isomer, unassigned) [Example 49, 2-[1-(2-Indazol-1-yl-6-methyl-4-oxo-chromen-8-yl)ethylamino]benzoic acid]	< 0.05	< 0.5	0.5 to 1		
Cc1cc(C(C)Nc2ccccc2C(=O)O)c2oc(-c3ccc4c(c3)c(C)nn4C)cc(=O)c2c1 (single isomer, unassigned) [Example 59, 2-[1-[2-(1,3-Dimethylindazol-5-yl)-6-methyl-4-oxo-chromen-8-yl]ethylamino]benzoic acid]	< 0.05	< 0.5			
Cc1cc(C(C)Nc2ccccc2C(=O)O)c2oc(-c3cc4ccncc4o3)cc(=O)c2c1 (single isomer, unassigned) [Example 40, 2-[1-(2-Furo[2,3-c]pyridin-2-yl-6-methyl-4-oxo-chromen-8-yl)ethylamino]benzoic acid]	0.1 to 0.5	1 to 5	5 to 10		

Other lines, results leading:

IC50 [1] [µM]	IC50 ([2]; Soy PI lipid substrate) [µM]	IC50 ([3]; Soy PI lipid substrate) [µM]	IC50 [2, 4] [µM]	IC50 [3, 4] [µM]	SMILES
0.05 to 0.1	< 0.5	0.5 to 1			Cc1cc(C(C)Nc2ccc(Cl)nc2C(=O)O)c2oc(-c3ccc4nc(C)cn4c3)c(C)c(=O)c2c1 (single isomer, unassigned) [Example 178, 6-Chloro-3-[1-[3,6-dimethyl-2-(2-methylimidazo[1,2-a]pyridin-6-yl)-4-oxo-chromen-8-yl]ethylamino]pyridine-2-carboxylic acid]
0.1 to 0.5	1 to 5	> 10			Cc1cc([C@@H](C)Nc2cccnc2C(=O)O)c2oc(-c3ccc4nc(C)sc4n3)cc(=O)c2c1 [Example 239, 3-[[(1R)-1-[6-Methyl-2-(2-methylthiazolo[5,4-b]pyridin-5-yl)-4-oxo-chromen-8-yl]ethyl]amino]pyridine-2-carboxylic acid]
0.05 to 0.1	< 0.5	0.5 to 1			Cc1cc([C@@H](C)Nc2ccc(Cl)cc2C(=O)O)c2oc(-c3ccc4cnn(C)c4c3)cc(=O)c2c1 [Example 237, 5-Chloro-2-[[(1R)-1-[6-methyl-2-(1-methylindazol-6-yl)-4-oxo-chromen-8-yl]ethyl]amino]benzoic acid]
< 0.05	< 0.5	0.5 to 1			Cc1cc(C(C)Nc2ccc(Cl)nc2C(=O)O)c2oc(-c3cc(C)c4nn(C)cc4c3)cc(=O)c2c1 (single isomer, unassigned) [Example 188, 6-Chloro-3-[1-[2-(2,7-dimethylindazol-5-yl)-6-methyl-4-oxo-chromen-8-yl]ethylamino]pyridine-2-carboxylic acid]
< 0.05	< 0.5	1 to 5			Cc1cc(C(C)Nc2ccccc2C(=O)O)c2oc(-c3ccc4ccn(C)c4c3)cc(=O)c2c1 (single isomer, unassigned) [Example 158, 2-[1-[6-Methyl-2-(1-methylindol-6-yl)-4-oxo-chromen-8-yl]ethylamino]benzoic acid]
0.05 to 0.1	< 0.5	< 0.5			CC(Nc1ccc(Cl)nc1C(=O)O)c1cc(C(F)(F)F)cc2c(=O)cc(-c3ccc4c(cnn4C)c3)oc12 (single isomer, unassigned) [Example 168, 6-Chloro-3-[1-[2-(1-methylindazol-5-yl)-4-oxo-6-(trifluoromethyl)chromen-8-yl]ethylamino]pyridine-2-carboxylic acid]
0.1 to 0.5	0.5 to 1	1 to 5			COc1ccc2cc(-c3cc(=O)c4cc(C)cc([C@@H](C)Nc5ccccc5C(=O)O)c4o3)cc(C)c2n1 [Example 248, 2-[[(1R)-1-[2-(2-Methoxy-8-methyl-6-quinolyl)-6-methyl-4-oxo-chromen-8-yl]ethyl]amino]benzoic acid]
< 0.05	0.5 to 1	1 to 5			Cc1cc(C(C)Nc2ccccc2C(=O)O)c2oc(-c3ccc4ncccc4n3)cc(=O)c2c1 (single isomer, unassigned) [Example 252, 2-[1-[6-Methyl-2-(1,5-naphthyridin-2-yl)-4-oxo-chromen-8-yl]ethylamino]benzoic acid]
